pKd: −log10 of the molar value.
Biological target: NACHT, LRR and PYD domains-containing protein 3 (Homo sapiens, UniProt Q96P20)
Test: Binding affinity to human recombinant NLRP3 inflammasome

Chain of NACHT, LRR and PYD domains-containing protein 3 (Q96P20 whole entry, the tested form may be a part): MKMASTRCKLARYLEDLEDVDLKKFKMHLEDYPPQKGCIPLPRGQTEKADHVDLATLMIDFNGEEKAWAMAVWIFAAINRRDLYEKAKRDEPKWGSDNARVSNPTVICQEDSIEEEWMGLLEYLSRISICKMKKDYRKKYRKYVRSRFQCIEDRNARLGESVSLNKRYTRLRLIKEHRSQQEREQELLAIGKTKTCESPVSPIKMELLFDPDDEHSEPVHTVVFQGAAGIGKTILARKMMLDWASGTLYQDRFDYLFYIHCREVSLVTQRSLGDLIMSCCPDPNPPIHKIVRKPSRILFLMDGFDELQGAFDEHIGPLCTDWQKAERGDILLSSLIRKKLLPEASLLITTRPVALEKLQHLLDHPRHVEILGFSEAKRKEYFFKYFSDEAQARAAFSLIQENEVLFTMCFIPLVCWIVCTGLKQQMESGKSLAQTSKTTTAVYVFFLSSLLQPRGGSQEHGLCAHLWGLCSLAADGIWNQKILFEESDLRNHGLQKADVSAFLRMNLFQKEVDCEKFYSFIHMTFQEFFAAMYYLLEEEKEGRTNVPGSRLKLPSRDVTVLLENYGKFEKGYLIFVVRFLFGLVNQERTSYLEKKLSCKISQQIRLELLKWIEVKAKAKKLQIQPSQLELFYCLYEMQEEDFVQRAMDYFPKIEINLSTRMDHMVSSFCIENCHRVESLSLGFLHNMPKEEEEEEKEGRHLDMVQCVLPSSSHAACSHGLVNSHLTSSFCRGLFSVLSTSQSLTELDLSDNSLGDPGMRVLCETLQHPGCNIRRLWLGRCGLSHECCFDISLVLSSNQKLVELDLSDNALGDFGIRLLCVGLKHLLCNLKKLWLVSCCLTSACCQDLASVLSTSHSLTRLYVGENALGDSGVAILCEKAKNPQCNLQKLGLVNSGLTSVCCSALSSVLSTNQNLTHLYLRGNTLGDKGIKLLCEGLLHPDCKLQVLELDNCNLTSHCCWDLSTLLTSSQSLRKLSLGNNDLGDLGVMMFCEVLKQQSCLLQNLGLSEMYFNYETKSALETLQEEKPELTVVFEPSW

Structure (SMILES): COc1ccc(Cl)cc1Cn1cc(-c2ccc(C(=O)N3CCC3)cc2)nn1
- pKd: 5.52

Structure (SMILES): COC(=O)c1ccc(-c2cn(Cc3cc(Cl)ccc3OC)nn2)nc1
- pKd: 6.07

Structure (SMILES): COc1ccc(Cl)cc1Cn1cc(C(=O)N2CC(F)(F)C2)nn1
- pKd: 6.01
